Measured values taken from patent US8007782B2, “Combination bacteriolytic therapy for the treatment of tumors” (priority 2003, dated 2011).

Experiments:
[1] = system: HCT116 human colorectal cancer cells; assay: Tumorigenicity assay, HCT116 xenografts in nude mice; format: in vivo; conditions: for Effect with C. novyi-NT / Effect alone: nude mice; for Effect alone: agent alone
Source text: All animal protocols were designed in accordance with the Guide for the Care and Use of Laboratory Animals (NIH Publication 86-23) and were approved by the Johns Hopkins University Institutional Animal Care and Use Committee. Six to eight week old mice were implanted subcutaneously on one flank with 3 to 6 million cancer cells. Establishment of tumors of 150 to 500 mm3 took 8 to 21 days, depending on the cell type. C. novyi-NT spores (300×106) and anti-microtubule agents were generally administered by a single intravenous injection through the tail vein in a total volume of 300 to 500 ul phosphate-buffered saline (PBS). Quantitative assessment of tumor growth was performed by measuring subcutaneous tumor grafts (major and minor axis) using electronic calipers. Tumor volume was calculated using the equation: length×width2×0.5. Progression free survival was defined as the length of time following treatment before any increase in tumor volume was observed. Mice were considered “cured” if no tumor was evident three months after treatment. Animals were weighed at least twice a week and carefully observed for signs of toxicity every day for the first week following treatment and then twice a week thereafter. At least five mice were used for each treatment arm described in the Experimental Results.
The timing, route, and dose of agents are critical for the success of any experimental therapy. When two agents are combined, the number of variables that must be tested increases exponentially. To simplify interpretation of the comparisons between various anti-microtubule agents, pilot studies with representative drugs were performed.
Eighteen agents known to interact with microtubules were each tested in this manner in nude mice harboring xenografts of HCT116 human colorectal cancer cells. At least five mice harboring tumors of 150 to 500 mm3 in size were used for each experimental arm. Two classes of responses were noted. One type of response was characterized by a rapid hemorrhagic necrosis, observed only with agents that inhibited microtubule […] (FIG. 1A, B). The other type of response was characterized by a slow regression, observed with agents that stabilized microtubules (FIG. 2A, B).

[2] = system: HCT116, HuCC-T1, HT-29, SW480, B16 and DLD-1 tumors; assay: Low dose HTI-286 and L-NNA on various xenografts (FIG. 10); format: in vivo, mice; conditions: HTI-286 1 mg/kg without L-NNA; L-NNA 10 mg/kg without HTI-286
Source text: FIG. 10A-10F Quantification of the effects of C. novyi-NT plus low doses of HTI-286 and L-NNA on various xenografts (HCT116, HuCC-T1, HT-29, SW480, B16, and DLD-1, respectively).
[…] […] The p-values are based on comparisons between L-NNA+HTI-286 and L-NNA+HTI-286+C. novyi-NT spores. The p-value is indicated only when the result was statistically significant.
All animal protocols were designed in accordance with the Guide for the Care and Use of Laboratory Animals (NIH Publication 86-23) and were approved by the Johns Hopkins University Institutional Animal Care and Use Committee. Six to eight week old mice were implanted subcutaneously on one flank with 3 to 6 million cancer cells. Establishment of tumors of 150 to 500 mm3 took 8 to 21 days, depending on the cell type. C. novyi-NT spores (300×106) and anti-microtubule agents were generally administered by a single intravenous injection through the tail vein in a total volume of 300 to 500 ul phosphate-buffered saline (PBS). Quantitative assessment of tumor growth was performed by measuring subcutaneous tumor grafts (major and minor axis) using electronic calipers. Tumor volume was calculated using the equation: length×width2×0.5. Progression free survival was defined as the length of time following treatment before any increase in tumor volume was observed. Mice were considered “cured” if no tumor was evident three months after treatment. […]

[3] = system: tumor blood flow in HCT116 xenografts; assay: Assessment of blood perfusion (Hoechst 33342) in HCT116 xenografts; format: in vivo, mice; conditions: HTI-286 1.7 mg/kg or docetaxel 50 mg/kg iv, 3 and 24 hr after treatment
Protocol: Three or 24 hours after treatment, mice were intravenously injected with Hoechst 33342 (40 mg/kg) and euthanized two minutes later. Tumors were cryosectioned and viewed by fluorescence microscopy after counter-staining with acridine orange (AO). Endothelial cells are stained blue when they have taken up the Hoechst 33342 dye. Adjacent sections were stained with MECA-32 monoclonal antibody, a vascular endothelium-specific marker. Arrows point towards normal blood vessels unaffected by HTI-286 treatment in overlying skin.
Mice bearing HCT116 xenografts of 300 to 500 mm3 were injected intravenously with anti-microtubule agents. At various times thereafter, they were intravenously injected with Hoechst 33342 (40 mg/kg), then euthanized two minutes later by CO2 narcosis. Tumors were fixed in Tissue-Tek OTC compound (Sakura Finetek, Torrance, Calif.) and stored at −80° C. Frozen sections 10 microns in thickness were prepared with a Leica Microsystems cryostat and counterstained with acridine orange, 7.5 ug/ml, in PBS for 5 minutes. […] At least three sections of each of three tumors, representing middle and distal parts of the tumor, were examined under fluorescence microscopy for each agent tested, and representative results are illustrated in the figures. […]

[4] = system: C. novyi-NT; assay: Quantification of C. novyi-NT in tumors by real-time PCR; format: in vivo, C. novyi-NT in mice bearing HCT116 xenografts; conditions: versus spores without drug; HCT116 xenografts; SD printed +/−0.08 (HTI-286), +/−0.3 (docetaxel)
Protocol: Mice bearing HCT116 xenografts were treated with C. novyi-NT spores with or without HTI-286 (1.7 mg/kg) as described above. Following euthanasia 24-48 hr later, tumors were harvested, weighed, minced, and Dounce-homogenized. Genomic DNA was isolated using the Qiagen Genomic DNA Buffer Set and Genomic-tip 100/G. 25 ng of DNA was used in a PCR using the conditions described in (Vogelstein and Kinzler, 1999) The following primers specific for the C. novyi-NT phospholipase C gene were used: 5′-[…] (SEQ ID NO:1) and 5′-[…] (SEQ ID NO:2). No detectable primer dimers formed and no nonspecific amplification of mouse or xenograft genomic DNA occurred with these primers and PCR conditions. Real-time PCR was performed using an iCycler, and threshold cycle numbers were calculated using the iCycler Optical system interface software (Bio-Rad Lab, Hercules, Calif.). Averages of the threshold cycle number (Ct) of triplicate measurements per tumor were obtained, and three different tumors were studied for each treatment group. The results were expressed as the difference between the Ct of the treated tumor and the Ct of untreated controls, normalized to tumor weight.
Second, we directly tested the size of bacterial populations within tumors by measuring the number of bacteria at various times following intravenous injection of C. novyi-NT spores into mice bearing HCT116 xenografts. […]

CN[C@H](C(=O)N[C@H](C(=O)N(C)[C@H](/C=C(\C)C(=O)O)C(C)C)C(C)(C)C)C(C)(C)c1ccccc1 [HTI-286, N,β,β-trimethyl-L-phenylalanyl-N^1-[(1S,2E)-3-carboxy-1-isopropylbut-2-enyl]-N^1,3-dimethyl-L-valinamide]
Effect with C. novyi-NT ([1]; 0.5 mg/kg × 1 (iv) with 3×108 C. novyi-NT spores iv): + | Effect with C. novyi-NT ([1]; 1.0 mg/kg × 1 (iv) with 3×108 C. novyi-NT spores iv): + | Effect with C. novyi-NT ([1]; 1.5 mg/kg × 1 (iv) with 3×108 C. novyi-NT spores iv): ++ (10% to 50% shrinkage in tumor volume relative to pre-treatment size) | Effect with C. novyi-NT ([1]; 1.7 mg/kg × 1 (iv) with 3×108 C. novyi-NT spores iv): ++++ (>20% cures) | Effect with C. novyi-NT ([1]; 1.9 mg/kg × 1 (iv) with 3×108 C. novyi-NT spores iv): ++++ (>20% cures) | Effect with C. novyi-NT ([1]; 2 (2.0) mg/kg × 1 (iv) with 3×108 C. novyi-NT spores iv): ++++ (>20% cures) | Effect alone ([1]; 0.5 mg/kg × 1 (iv)): 0 | Effect alone ([1]; 1.0 mg/kg × 1 (iv)): 0 | Effect alone ([1]; 1.5 mg/kg × 1 (iv)): + | Effect alone ([1]; 1.7 mg/kg × 1 (iv)): + | Effect alone ([1]; 1.9 mg/kg × 1 (iv)): ++ (10% to 50% shrinkage in tumor volume relative to pre-treatment size) | Effect alone ([1]; 2 (2.0) mg/kg × 1 (iv)): ++ (10% to 50% shrinkage in tumor volume relative to pre-treatment size) | hemorrhagic necrosis ([1]; single treatment): modest amount of hemorrhagic necrosis | effects on tumor growth when administered without the other agent [2]: no significant effects on tumor growth | blood flow to the tumors (Hoechst 33342 labelling) [3]: almost completely inhibited | increase in number of C. novyi-NT bacteria in tumor when co-injected with drug [4]: 6.8 fold
